Source: US5356935A, “Reduced phenanthrenes” (Eli Lilly and Company, priority 1993, dated 1994)

How the values were obtained:
Type I 5α-reductase = molecular target: T1, Type I 5α-reductase (Homo sapiens, UniProt P18405); assay: Human Type I steroid 5α-reductase assay (human scalp enzyme, [3H]-testosterone conversion); format: biochemical; settings: compared to control reaction mixtures, read-out: percent inhibition of Type I 5AR; for inhibition at 0.01 µM: compound concentration .01 μM; for inhibition at 0.03 µM: compound concentration .03 μM; for inhibition at 0.1 µM: compound concentration .1 μM
T1 construct: Scalp punch biopsies from graft recipient sites were obtained from human hair transplant procedures; from tissue; host or cells: human scalp punch biopsies (pooled, 60-75 punches from one surgical procedure), 100,000×g pellet of homogenate
T1 sequence (P18405 1-259): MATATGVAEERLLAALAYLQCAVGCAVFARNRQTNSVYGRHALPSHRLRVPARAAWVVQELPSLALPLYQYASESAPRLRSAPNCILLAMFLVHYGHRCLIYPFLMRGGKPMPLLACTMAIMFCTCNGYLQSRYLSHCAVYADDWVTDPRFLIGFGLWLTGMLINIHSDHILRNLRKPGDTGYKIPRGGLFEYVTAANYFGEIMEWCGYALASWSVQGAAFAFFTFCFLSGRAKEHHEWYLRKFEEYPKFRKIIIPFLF
Protocol: Scalp punch biopsies from graft recipient sites were obtained from human hair transplant procedures immediately after surgery and were frozen on dry ice and stored at -80° C. Approximately 60-75 punches from one surgical procedure were used to generate an enzyme preparation. The subcutaneous tissue was cut away and discarded. The skin was frozen with liquid nitrogen and pulverized to powder. The powder was homogenized in 30 ml of ice-cold buffer (20 mM Tris-HCl, pH 7.5) using a Brinkmann Polytron (Westbury, N.Y.) with a PTA 10-S robe and a setting of 7. The homogenization procedure consisted of four 15 second pulses. Connective tissue was cleared from the probe with forceps between pulses. The homogenate was then filtered through cheese cloth and the filtrate centrifuged at 100,000×g for one hour in a Beckman L8-60M ultracentrifuge. The pellet was resuspended by homogenization with a Dounce homogenizer using the same buffer solution. An aliquot was taken for protein determination by the Lowry method, Lowry, et al., Protein Measurement with the Folin Phenol Reagent, J. Biol. Chem., 193,265-75 (1951). Aliquots of the enzyme preparation were stored at -80° until use.
(§1) This enzyme assay is based on the conversion of [^3 H]-testosterone to [^3 H]-5α-dihydrotestosterone (DHT) and other 5α-reduced metabolites. While about 90% of the 5α-reduced metabolites formed in these assays was DHT, androstanedione was formed at about 10%. Essentially no androsterone was detected. In a total volume of 1.0 ml, the assay contained 2.6 μCi [^3 H]-testosterone (50 nM), 500 μM of reduced nicotine adeninc dinucleotide phosphate, 100 mM Tris-HCl, pH 7.5, (in Type II assays, 40 mM sodium acetate at pH 5.5 is used instead of Tris-HCl) and test compounds as indicated. Test compounds were added in 20 μl of dimethylsulfoxide (20 μl of dimethylsulfoxide was added to blanks and controls). The reaction was initiated by the addition of 0.5 mg of Type I or Type II 5α-reductase. The reaction mixture was incubated for 30 min at 25° and terminated by the addition of 1 ml ice-cold stopping solution. The stopping solution contained 40 μM each of non-radioactivetestosterone, DHT, androstenedione, androstanedione, androsterone, androstan-3β,17β-diol, and androstan-3α,17β-diol.
(§2) The samples were prepared for high performance liquid chromatography by solid phase extraction. Disposable solid matrix extraction columns (C-18 reversed;phase, 6 ml, 500 mg; Bond Elut™ from Analytichem International; Harbor City, Calif.) were conditioned by washing with 5 ml of methanol followed by 5 ml of deionized water. The reaction mixtures were then applied to the columns. The columns were subsequently washed with 5 ml of acetone:water (1:4), followed by 0.3 ml of methanol. The samples were then eluted with 3 ml of methanol and collected in 20 ml scintillation vials. Three ml of water was then added to each scintillation vial. The solutions were then transferred to tubes and centrifuged for 30 min at 1000×g to remove any particulate material before chromatography.
(§3) The [^3 H]-testosterone substrate and its metabolites were separated by chromatography using a C-18 reversed phase column (Beckman Ultrasphere 5 μm spherical 80A pore, part no. 235329, 4.6 mm i.d.×[…]) with an isocratic mobile phase (46 water: 46 methanol: 8 tetrahydrofuran by volume). The column temperature was maintained at 35° and the flow rate was 1.5 ml/min. A 400 μl aliquot was injected onto the column and radioactivity was determined using a Beckman 171 in-line flow radioisotope detector in conjunction with Rainin Dynamax™ software and a Macintosh computer. The flow rate of the Atomflow™ scintillation fluid was 4.5 ml / min.

Type II 5α-reductase = molecular target: T2, Type II 5α-reductase (Homo sapiens, UniProt P31213); assay: Human Type II steroid 5α-reductase assay (human prostate enzyme, [3H]-testosterone conversion); format: biochemical; settings: compared to control reaction mixtures, read-out: percent inhibition of Type II 5AR; for inhibition at 1 µM: compound concentration 1 μM; for inhibition at 3 µM: compound concentration 3 μM; for inhibition at 10 µM: compound concentration 10 μM; for inhibition at 0.3 µM: compound concentration .3 μM
T2 construct: from tissue; host or cells: human prostate tissue from surgery, 100,000×g pellet of homogenate
T2 sequence (P31213 1-254): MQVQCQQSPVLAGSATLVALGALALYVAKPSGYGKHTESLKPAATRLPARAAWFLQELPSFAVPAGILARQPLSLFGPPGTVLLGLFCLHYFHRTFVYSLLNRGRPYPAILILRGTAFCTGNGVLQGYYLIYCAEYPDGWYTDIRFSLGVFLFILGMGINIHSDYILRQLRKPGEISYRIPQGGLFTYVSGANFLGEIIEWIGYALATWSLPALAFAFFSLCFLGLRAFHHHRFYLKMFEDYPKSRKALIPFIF
Protocol: The same procedure as above was used for preparations using tissue from prostate surgery with the following changes: The buffer used was 20 mM sodium phosphate, pH 6.5; and the pellet was resuspended in the sodium phosphate buffer containing 20% glycerol.
as §1, §2, §3

| SMILES | inhibition at 0.01 µM (Type I 5α-reductase) [%] | inhibition at 0.03 µM (Type I 5α-reductase) [%] | inhibition at 0.1 µM (Type I 5α-reductase) [%] | inhibition at 1 µM (Type II 5α-reductase) [%] | inhibition at 3 µM (Type II 5α-reductase) [%] | inhibition at 10 µM (Type II 5α-reductase) [%] | inhibition at 0.3 µM (Type II 5α-reductase) [%] |
| --- | --- | --- | --- | --- | --- | --- | --- |
| C[C@]12CCC(=O)C(N)=C1CCc1cc(Cl)ccc12 [Example 1, (R)-1-amino-7-chloro-4,4a,9,10-tetrahydro-4a-methyl-2(3H)-phenanthreneone] | 0 | 35 | 42 | 55 | 49 | 63 | 47 |
| C[C@]12CCC(=O)C(N)=C1C=Cc1cc(Cl)ccc12 [Example 2, (R)-1-amino-7-chloro-4,4a-dihydro-4a-methyl-2(3H)-phenanthreneone] | 0 | 3 | 26 | 16 | 33 | 36 | 7 |
